According to patent US20110110916A1, “METHODS FOR TREATING AND/OR PREVENTING CARDIOMYOPATHIES BY ERK OR JNK INHIBITION” (priority 2008, published 2011):

Columns and labels:
[1] = tested on: cyclooxygenase-2; conditions: reference 137; cited from earlier work
[2] = tested on: hearts from Lmna^H222P/H222P mice; experiment: Quantitative real-time RT-PCR of mRNAs in hearts of treated mice; format: in vivo, mouse; conditions: for expression of Colla1, Colla2 and Fn1 / expression of Mlc-2a, NppA and NppB mRNAs: 20 weeks of age, 3 mg/kg/day from 16 to 20 weeks
Excerpt: Total RNA was extracted using the Rneasy isolation kit (Qiagen) as previously described (96). cDNA was synthesized as previously described (96) using Omniscript Reverse Transcriptase (Qiagen) on total cellular RNA. For each replicate in each experiment, RNA from tissue samples of different animals was used. Primers were designed that correspond to mouse RNA sequences using Primer3 (http://frodo.wi.mit.edu/cgi-biniprimer3/primer3_www.cgi). The real-time RT-PCR reaction contained iQ SYBR green super mix (Bio-Rad), 200 nM of each primer and 0.2 μl of template in a 25 μl reaction volume. Amplification was carried out using appropriate primers and the MyiQ Single-Color Real-Time PCR Detection System (Bio-Rad) with an initial denaturation at 95° C. for 2 min followed by 50 cycles at 95° C. for 30 s and 62° C. for 30 s. Relative levels of mRNA expression were calculated using the CT method (67). Individual expression values were normalized by comparison with Gapdh mRNA.
Real-time reverse transcription-PCR (RT-PCR) was used to quantify tissue RNA levels. Total RNA was extracted from cardiac ventricles of mice using the Rneasy isolation kit (Qiagen) as previously described. cDNA was synthesized using Superscript first strand synthesis system according to the manufacturer's instructions (Invitrogen) on total RNA. For each replicate in each experiment, RNA from tissue samples of different animals was used. Primers were designed correspond to mouse RNA sequences using Primer3 (http://frodo.wi.mit.edu/cgi-bin/primer3/primer3_www.cgi) for Nppa (forward 5′-[…]-3′ [SEQ ID NO: 4], reverse 5′-[…]-3′ [SEQ ID NO: 5]), Nppb (forward 5′-[…]-3′ [SEQ ID NO: 6], reverse 5′-[…]-3′ [SEQ ID NO: 7]), Mlc-2a (forward 5′-[…]-3′ [SEQ ID NO: 8], reverse 5′-[…]-3′ [SEQ ID NO: 9]), Colla1 (forward 5′-[…]-3′ [SEQ ID NO: 10], reverse 5′-[…]-3′ [SEQ ID NO: 11]), Colla2 (forward 5′-[…]-3′ [SEQ ID NO: 12], reverse 5′-[…]-3′ [SEQ ID NO: 13]) and Fn1 (forward 5′-[…]-3′ [SEQ ID NO: 14], reverse 5′-[…]-3′ [SEQ ID NO: 15]). The real-time RT-PCR reaction contained iQ SYBR green super mix (Bio-Rad), 200 nM of each primer, and 0.2 μl of template in a 25 μl reaction volume. Amplification was carried out using the MyiQ Single-Color Real-Time PCR Detection System (Bio-Rad) with an initial denaturation at 95° C. for […] followed by 50 cycles at 95° C. for 30 s and 62° C. for 30 s. Relative levels of mRNA expression were calculated using the ΔΔCT method (2). Individual expression values were normalized by comparison with Gapdh mRNA (forward 5′-[…]-3′ [SEQ ID NO: 16], reverse 5′-[…]-3′ [SEQ ID NO: 17]).

[3] = tested on: C2C12 cells; experiment: ERK1/2 phosphorylation in C2C12 cells treated with Emd and Lmna siRNAs (immunoblot, ELISA); format: cell-based, mouse; conditions: 45 μM for 24 hours
Description: Human HeLa cells and mouse C2C12 cells were maintained in a 5% CO2 atmosphere at 37° C. The cells were cultured in Dulbecco's modified Eagle's medium supplemented with 10% calf bovine serum and 0.1% gentamicin.
One day before transfection, HeLa and C2C12 cells were trypsinized, diluted with fresh medium without antibiotics and transferred to 24-well plates. Transient transfection of siRNAs was carried out using Oligofectamine (Invitrogen) as recommended by the manufacturer. Cells were preincubated in 7.5 μl OPTIMEM 1 medium (Life Technologies) and 2 μl Oligofectamine per well for 5 minutes at room temperature. During the time of this incubation, 40 μl OPTIMEM 1 medium were mixed with 2.5 μl siRNA. The two mixtures were combined and incubated for 20 minutes at room temperature for complex formation. The entire mixture was added to the cells in one well resulting in a final concentration of […] for the siRNAs. […]
Proteins were separated by SDS-PAGE, transferred to nitrocellulose membranes and blotted with primary antibodies against ERK1/2 (Santa-Cruz), pERK1/2 (Cell Signaling), lamin A/C (Santa-Cruz), emerin (Novocatra), β-actin (Sant-Cruz) and Gapdh (Santa-Cruz). […] Band densities were calculated using Scion Image software (Scion Corporation) and normalized to the appropriate total extract to control for protein loading. […]

[4] = tested on: Lmna^H222P/H222P mice; experiment: Pilot study: echocardiography at 24 weeks of age, treatment from 19 to 24 weeks; format: in vivo, mouse; conditions: 3 mg/kg/day from 19 to 24 weeks, pilot study n=3
Description: SP600125, an anthrapyrazolone inhibitor of JNK, and PD98059, a 2′-amino-3′-methoxyflavone MAPK/ERK kinase (MEK) ½ inhibitor, (Calbiochem) were dissolved in dimethyl sulfoxide (DMSO) (Sigma) at a concentration of 1 mg/ml and were delivered to a dose of 3 mg/kg/day for 5 days a week. The placebo control consisted of DMSO alone and was delivered in the same volume. Placebo and inhibitors were administered by intraperitoneal injection using a 27⅝-gauge syringe. Treatments were started when mice were 16 weeks of age and continued until 20 weeks of age or when the mice were 19 weeks and continued until 24 weeks of age.
At 20 weeks or 24 weeks of age, mice were anesthetized with 1.5% isoflurane in O2 and placed on a heating pad (37° C.). Cardiac function was assessed by echocardiography with a Visualsonics Vevo 770 ultrasound with a 30 MHz transducer applied to the chest wall. Cardiac ventricular dimensions and fractional shortening (FS) were measured in 2D mode and M-mode three times in a modified short axis view for the number of animals indicated. A “blinded” echocardiographer (J.S.), unaware of the genotype or treatment, performed the examinations.
In a pilot study, we assessed treatment of Lmna^H222P/H222P mice with PD98059 and SP600125 at a more advanced stage of disease and for a longer time. […]

[5] = tested on: cyclooxygenase-1; conditions: reference 137; cited from earlier work
[6] = pilot study, 24 weeks, treated from 19 weeks

Row | SMILES | activity against cyclooxygenase-2 [1] | expression of Colla1, Colla2 and Fn1 [2] | expression of Mlc-2a, NppA and NppB mRNAs [2] | expression of Elk1, Elk4, Atf2 and Atf4 ([2]; hearts at 16 weeks, treated 8 to 16 weeks) | cardiac expression of Mlc-2a, NppA, Colla1 and Colla2 mRNAs [2, 6] | cardiac expression of NppB mRNA [2, 6] | increase in pERK (immunoblot) ([3]; C2C12 cells treated with Emd and Lmna siRNAs) | ERK1/2 phosphorylation (ELISA) ([3]; siRNA-treated C2C12 cells (FIG. 20B)) | LV dilatation and FS compared to DMSO-treated mice [4] | activity against cyclooxygenase-1 [5]
1 | COc1cccc(-c2cc(=O)c3ccccc3o2)c1N [PD98059, 2-(2-amino-3-methoxyphenyl)-4H-1-benzopyran-4-one] | has activity | significantly lowered | significantly decreased | decreased expression | significantly reduced | significantly reduced | reduced | Inhibition of ERK1/2 | decreased LV dilatation and increased FS | has activity
2 | O=C1c2ccccc2-c2n[nH]c3cccc1c23 [SP600125, anthra[1,9-cd]pyrazol-6(2H)-one] |  | significantly lowered | significantly decreased |  | significantly reduced |  |  |  | trend toward decreased LV dilatation and increased FS | 
